# Source: patent publication US20110218515A1, “Methods for Treating Acute Myocardial Infarctions and Associated Disorders” (The Regents of the University of California, priority 2009, published 2011)
# Key:
# [1] = system: ischemia-reperfusion rat model; experiment: Histological analysis of infarct size and fibrosis; assay type: in vivo, Sprague-Dawley rats
# Experimental: After baseline echocardiography, thirty male Sprague-Dawley rats, ages 6-10 weeks, underwent myocardial infarction using an ischemia-reperfusion model. Briefly, rats were anesthetized using inhaled isoflurane (5% induction, 2.5% maintenance, O2 output 1 L/min) and positioned supine on an electrically warmed animal surgery platform. Rats were intubated using a 16-gauge i.v. catheter and then ventilated using a Harvard rodent respirator. After a left thoracotomy and pericardiotomy were performed, a 7-0 Ticron suture was introduced into the myocardium, using the left atrial appendage and right outflow tract as landmarks. The depth of entry was 2 mm, which was slightly greater than the level of the left coronary artery. Both suture ends were then threaded through a PE-90 polyethylene tube 6 in. in length to form a “snare loop” around the artery, closed by pulling on the free ends of the suture. […] The suture was then tightened to occlude the artery for 20 minutes and then removed to allow for reperfusion. The chest was then closed with 5-0 prolene suture, and the animal was allowed to recover. After one week and repeat echocardiography, rats were randomized to placebo rodent feed (control group, n=15) or rodent feed mixed with 1.2% pirfenidone (PFD) (treatment group, n=15) for four weeks. All experiments and data analyses were performed with the operator blinded to treatment group.
# Ventricular tissue samples were fixed in 10% neutral buffered formalin. The samples were embedded in paraffin, sectioned (10-μm thick), and then stained with Masson's trichrome or Sirius red with fast green counterstain. Stained slides were examined under light microscopy, digitized using a high-resolution scanner, and analyzed using Photoshop CS software. Infarct areas on Masson's trichome corresponded tightly with areas of dense Sirius red staining with minimal to no fast green. Infarct scar area and total area of left ventricular myocardium, for all sections, were manually traced in the digital images and automatically calculated by the software. Infarct size, expressed as a percentage, was measured by dividing the sum of infarct areas from all sections by the sum of LV areas from all sections and multiplying by 100.
# The total area of fibrosis was also assessed. After excluding the infarct area (defined as dense fibrosis), fibrosis in the border and non-infarct zones was quantified from digital photomicrographs of the Sirius red-stained sections. Areas containing blood vessels and perivascular interstitial cells were also excluded from fibrosis quantification. The red pixel content of digitized images relative to the total tissue area was counted by using the Adobe Photoshop CS software.
# [2] = system: congestive heart failure dogs, coronary perfused left ventricular preparation; experiment: VF frequency domain analysis (dominant frequency), pacing-induced heart failure dogs; assay type: in vivo; conditions: CHF dogs with PFD
# Source text: (§1) Animal Models: Twenty-four dogs weighing 25-30 Kg were divided into three groups: control (n=11), congestive heart failure (n=7), and congestive heart failure with the antifibrotic drug pirfenidone (n=6). Heart Failure (CHF) was induced in 7 dogs via four weeks of rapid ventricular pacing via a lead placed in the RV and pulse generator set to pace at 240 bpm followed by ablation of the AV node to create complete heart block, as described in Li, et al., Circulation 1999; 100:87-95. Ventricular function was monitored weekly with transthoracic echocardiography for 4 weeks. At 4 weeks, the optical mapping study was performed.
# (§2) Heart Failure with Pirfenidone (PFD): Heart failure was induced in 6 dogs as described above and PFD was administered as described in Lee et al., Circulation 2006; 114; 1703-12. Oral PFD (800 mg 3 times per day; InterMune, Brisbane, Calif.) was started 2 days before the initiation of pacing and was discontinued >6 half-lives (24 hours) before the optical mapping study.
# (§3) With an optical mapping system described in Wu et al., J Cardiovasc Electrophysiol 1998; 9:1336-47, optical recordings were then made from 4-cm^2 area on 3 surfaces of the preparation (epicardial, endocardial (including the papillary muscle, and transmural) by a 16×16 photodiode array (C4657 Hamamatsu, Bridgewater, N.J.) that recorded 256 simultaneous optical action potentials. During optical recordings from a preparation, contractility was blocked with 15 mM 2,3-butadione monoxime (BDM; Sigma-Aldrich)11. Plunge electrodes were placed on the recording surface around the field of view for both pacing and monitoring. Two plunge electrodes were dedicated for recording a bipolar signal for monitoring the electrical activity of the preparation. VF was initiated with either extra stimuli or with rapid burst pacing at a cycle length of 50 ms, a pulse width of 9.9 ms, and an output of 9.9 mA. Several 4-s episodes of VF were recorded on each surface in each preparation. Activation movies of the VF were then viewed, and the activation patterns were determined. After termination of VF, signals were obtained during pacing at 250 ms and isochronal maps of activation were constructed to look at conduction. Activation patterns and wave-front direction during VF were determined from raw fluorescence movies (isopotential). […] VF was defined as rapid and irregular activations on the bipolar signal used for monitoring the electrical activity of the preparation.
# (§4) Signal Processing and Frequency Domain Analysis: The signals obtained from the optical mapping recordings were sampled at 2,000 Hz, and for each signal the dominant frequency (DF) was determined and the organization was calculated as described Everett, et al., IEEE Trans Biomed Eng 2001; 48:969-78. Briefly, a fast Fourier transform (FFT) was calculated on the digitally filtered waveform. The data were detrended and multiplied by a Hamming window. The largest peak of the resulting magnitude spectrum was identified, and the positions of the harmonic peaks were determined on the basis of its position. The areas under the largest peak and three of its harmonic peaks were each calculated over a 1-Hz window. This produced an area under four peaks. The total area of the spectrum was calculated from 2 Hz up to but not including the fifth harmonic peak. The ratio of the power under the harmonic peaks to the total power in this range was calculated, and the resulting number was defined as the organization index (OI). The OI was theorized to represent the organization of AF for that signal at that period in time. To calculate the variance of the DFs, spatial coefficient of variance (SD/mean) of the DFs during a single episode of AF among all recording sites and temporal coefficient of variance of average DFs from among AF episodes for each mapping field within each preparation were calculated. Discrete, stable, high frequency areas were noted. […]
# [3] = system: congestive heart failure dogs, coronary perfused left ventricular preparation; experiment: VF organization index analysis, pacing-induced heart failure dogs; assay type: in vivo; design: key to OI Spatial CoV / OI Temporal CoV: coefficient of variance = SD/mean; conditions: CHF dogs with PFD
# Source text: as §1, §2, §3, §4
compound,measurement,setting,value
Cc1ccc(=O)n(-c2ccccc2)c1 [pirfenidone],amount of fibrosis (including border zones and non-MI areas and infarct scar),"[1]; controls 23±2%, p=0.01",13±3%
same,total amount of fibrosis and extra-infarct fibrosis,[1]; rat MI model,attenuated
same,"infarct size, percent of total myocardium","[1]; rat MI model, controls 18%±2.7%, p=0.022",10±1.9%
same,fibrosis within the infarct border zone,"[1]; rat MI model, vs control infarcts",not only decreased but its distribution appeared less heterogeneous
same,dogs with at least one surface with VF characterized by high DF areas,"[2]; CHF 6 of 7, Controls 3 of 11",3 of 6
same,"gradient of frequencies over distance, transmural surface",[2]; untreated heart failure animals have a very large gradient,preserved the transmural gradient to that similar to control animals
same,DF Spatial CoV,[2]; Endocardium,0.11 ± 0.04
same,DF Temporal CoV,[2]; Endocardium,0.07 ± 0.03
same,Max DF,[2]; Endocardium,10.44 ± 1.32 Hz
same,Mean DF,[2]; Endocardium,8.29 ± 0.68 Hz
same,DF Spatial CoV,[2]; Epicardium,0.09 ± 0.04
same,DF Temporal CoV,[2]; Epicardium,0.05 ± 0.01
same,Max DF,[2]; Epicardium,10.92 ± 0.98 Hz
same,Mean DF,[2]; Epicardium,9.17 ± 1.08 Hz
same,DF Spatial CoV,[2]; Transmural,0.14 ± 0.06
same,DF Temporal CoV,[2]; Transmural,0.08 ± 0.02
same,Max DF,[2]; Transmural,10.24 ± 1.89 Hz
same,Mean DF,[2]; Transmural,7.93 ± 1.52 Hz
same,Max OI,[3]; Endocardium,0.61 ± 0.05
same,Mean OI,[3]; Endocardium,0.45 ± 0.05
same,OI Spatial CoV,[3]; Endocardium,0.16 ± 0.03
same,OI Temporal CoV,[3]; Endocardium,0.13 ± 0.01
same,Max OI,[3]; Epicardium,0.62 ± 0.05
same,Mean OI,[3]; Epicardium,0.44 ± 0.05
same,OI Spatial CoV,[3]; Epicardium,0.17 ± 0.01
same,OI Temporal CoV,[3]; Epicardium,0.14 ± 0.01
same,Max OI,[3]; Transmural,0.65 ± 0.06
same,Mean OI,[3]; Transmural,0.48 ± 0.05
same,OI Spatial CoV,[3]; Transmural,0.17 ± 0.03
same,OI Temporal CoV,[3]; Transmural,0.13 ± 0.01
